Structures are written as SMILES.

The source of these data is ChEMBL document CHEMBL2440095, “Synthesis and activity of novel tetrazole compounds and their pyrazole-4-carbonitrile precursors against Leishmania spp” (Bioorg Med Chem Lett, 2013).

Data set [1] in a line: Cytotoxicity against mouse RAW264.7 cells after 24 hrs by MTT assay. It counts as cell-based. For orientation: Formazan colour is commonly taken as a measure of viable cells.
For data set [2], the system named is Leishmania braziliensis. Description: Antipromastigote activity against Leishmania braziliensis MCAN/BR/98/R619 after 24 hrs by MTT assay. The format is functional, organism-based. To be noted: MCAN/BR/98/R619, 24 h.
For data set [3], the system named is Leishmania amazonensis. Description: Antipromastigote activity against Leishmania amazonensis MHOM/BR/77/LTB0016 after 24 hrs by MTT assay. The format is functional, organism-based. To be noted: MHOM/BR/77/LTB0016, 24 h.

For orientation: CC50 means the concentration that lowers cell viability or growth by half. Low values mean greater toxicity to the cells, high ones lower toxicity to the cells. By IC50 is commonly meant the concentration that inhibits the measured activity by half. On to `N=C(N)c1ccc(OCCCCCOc2ccc(C(=N)N)cc2)cc1` [PENTAMIDINE], for which, in data set [1], the CC50 at 24 h came out at 25.5 µM. Further, the results for the IC50 in data set [2] and in data set [3] were 13 µM and 3.38 µM, respectively.
